The text below walks through data of PMC6627331, “Identification of Small Molecule Inhibitors of Staphylococcus aureus RnpA” (Antibiotics, 2019).

One data set concerns Galleria mellonella. Nature of the data set: Galleria mellonella single tolerated dose (uninfected worms). Conditions: single dose 100 mg·kg^−1, 16 h. The class given is in vivo. Here is the method: An overnight culture of S. aureus strain UAMS-1 was used to inoculate (1:100 dilution) 25 mL of fresh MH medium and growth at 37 °C on a rotary shaker at 225 rpm to exponential phase (~1 × 10^8 CFU mL^−1). Cultures were pelleted by centrifugation, washed with phosphate buffered saline (PBS), and re-suspended at ~1 × 10^7 CFU·mL^−1 in fresh PBS. G. mellonella larvae weighing 150–250 mg were inoculated with 5 µL of S. aureus into the last left proleg using a 10 µL Hamilton syringe. About 1 h after inoculation, one group of worms was treated with 2 µL DMSO as infected negative control; one group was treated with 2 µL JC2 compound at 100 mg/kg dose; another group was treated with 2 µL vancomycin at 100 mg/kg dose as standard-of-care comparison. Treatments were administered in the same manner as infection, except that each injection was in the next left proleg moving towards the head of the worm. […] In addition to the mock or compound treatment of infected larvae, a group of non-infected worm injected with DMSO or corresponding compounds were used to monitor the impact of physical trauma as well as observe toxicity associated with compound treatment.

In data set [1] the test system is S. aureus strain UAMS-1, USA300 or BAA-1708. Nature of the data set: Selection of spontaneous resistant cells in liquid culture. The class given is cell-based, Staphylococcus aureus. Conditions: 24 h incubation in liquid culture, 2× MIC.
For a further data set, the system named is E. coli. Nature of the data set: Antimicrobial activity toward E. coli. The class given is cell-based, Escherichia coli.
For another data set, the system named is S. aureus USA300. Put plainly: MIC against clinical strain USA300. The class given is cell-based, Staphylococcus aureus.
A further data set has as its system S. aureus BAA-1708. Put plainly: MIC against clinical strain BAA-1708. The data set is classed as cell-based, Staphylococcus aureus. Conditions: S. aureus clinical strain BAA-1708.
The test system of another data set is HepG2 cells. Nature of the data set: MTT human cell cytotoxicity testing. The data set is classed as cell-based. The note with it: SAR figures; 4× MIC exposure for 24 h. The procedure:
Human HepG2 hepatocytes were seeded in individual wells of a 96-well cell-culture treated microtiter plate at a concentration of 1 × 10^5 cells per well and incubated in Dulbecco’s Modified Eagle Medium (DMEM) supplemented with 10% fetal bovine serum at 37 °C with 5% carbon dioxide overnight. Cells were then treated with DMSO (negative control) or the indicated agent for 24 h. MTT Cell Proliferation Assay Kits were used to assess viability according to the manufacturer’s recommendations (American Type Culture Collection; Manassas, VA, USA).

The nature of data set [2]: JC2 stability (degradation test) in Mueller Hinton broth by HPLC. The data set is classed as physicochemical. Conditions: 37 °C, read-out: half-life in Mueller Hinton media (MH t1/2) (converted). The procedure: Degradation test: Blank sample was prepared with 20 µL Mueller Hinton broth (BD biosciences, US) diluted in 180 µL of 2 % DMSO in 1:1 (v/v) acetonitrile : water solution, and directly submitted to HPLC for evaluation. A 5 mM JC2 stock solution was prepared by diluting the 25 mM stock solution with DMSO. 4 µL of 5 mM […] solution was added into 196 µL of MH, and incubated at 37 °C for the whole course of evaluation. 20 µL of each incubated sample was taken at 0, 0.5, 1, 2, 4, 8, 16 hr, and were prepared in the same manner as the blank sample before submitting to HPLC.
Chromatography was performed on an Agilent 1200 series HPLC system that equipped with a vacuum degasser, a quaternary pump, a diode array and multiple wavelength detector SL, and a standard and preparative autosampler (Agilent Technologies, US). A Hyspersil GOLD^TM C-18 4.6 x 250 mm, 3 µm column was used for separation. A gradient elution method was used as the mobile phase by mixing solvent A (water, 0.1% formic Acid) and solvent B (acetonitrile, 0.1% formic acid). The time program for gradient elution is shown in Table A. The flow rate was set at 1.0 ml/min, and 20µl of sample was injected each time. The detector monitored absorption at 254, 215, 280 nm.
Chemstation Offline (Agilent Technologies, US) was used to analyze the data. […]

A further data set has as its system S. aureus UAMS-1. Nature of the data set: Fractional inhibitory concentration (FIC) testing. The data set is classed as cell-based, Staphylococcus aureus. The note with it: checkerboard, 16 h. The procedure:
Fractional inhibitory concentration (FIC) testing was performed to determine the combined effects of the indicated antibiotic and the putative RnpA inhibitor following the procedures of Odds and colleagues. To do so, individual wells of a 96-well microtiter plate were inoculated with 10^4 colony forming units (CFU) of S. aureus UAMS-1 in MHB. Each row of the plate contained two-fold increasing concentrations of the indicated antibiotic (0, 0.03, 0.06, 0.125, 0.25, 0.5, 1, 2, or 4× MIC), whereas each column contained increasing concentrations of the putative RnpA inhibitor compound (0, 0.03, 0.06, 0.125, 0.25, 0.5, 1, 2, or 4× MIC). Plates were incubated at 37 °C for 16 h and growth was determined by the unaided eye. The FIC was defined using the following formula: FIC = (MIC of Drug A in Combination/MIC of Drug A Alone) + (MIC of Drug B in Combination/MIC of Drug B Alone). A synergistic interaction was defined as an FIC value ≤ 0.5, an additive interaction as 0.5 < FIC < 1, no interaction as 1 ≤ FIC < 4, and an antagonistic interaction as FIC ≥ 4.

The MIC is the least concentration at which growth counts as inhibited.

Each structure is given as a SMILES string. ≈ marks a conversion by molar mass, not a printed value. Read-outs that look alike come from different tables or passages of the source.

Regarding `CC1CCCCN1C(=O)Nc1cc(Cl)cc(Cl)c1` (stereo not shown) [JC2], the “mortality rate of uninfected worms” value in the data set with Galleria mellonella is on record as “did not display any treatment-associated lethality”. The “selection of spontaneous resistant cells” value in data set [1] is listed as “unable to select for spontaneous JC2 resistant”. In addition, in the data set with E. coli, the “antimicrobial activity toward E. coli” value is “did not shown antimicrobial activity”. Further, the MIC against S. aureus USA300 stood at 0.5 µg/mL (≈ 1.74 µM). For the same molecule, the MIC in the data set with S. aureus USA300 (Staphylococcus aureus, read-out: MIC) was determined as 0.5 µg/mL (≈ 1.74 µM). Further, the MIC in the data set with S. aureus BAA-1708 was 1 µg/mL (≈ 3.48 µM). For the same molecule, the MIC in the data set on S. aureus BAA-1708 (Staphylococcus aureus, BAA1708, read-out: MIC) was 1 µg/mL (≈ 3.48 µM). Further, the “MTT = % HepG2 cell survival” value in the data set on HepG2 cells came to 87%. Further, the half-life at 100 µM in data set [2] is ~2 h. Also, in the data set with S. aureus UAMS-1, the “FIC in combination with ampicillin” value came out at 2, the “FIC in combination with erythromycin” value worked out at 2, the “FIC in combination with mupirocin” value is recorded as 0.875 and the “FIC in combination with trimethoprim” value came out at 2.
